Results from patent publication US6680336B2, “Cyclic AMP-specific phosphodiesterase inhibitors” (ICOS Corporation, priority 1999, dated 2004).
Where two headings read alike, the source gives them in different places.

Columns and labels:
recombinant human PDE4 [1] = target: T1, recombinant human PDE4; experiment: PDE4 inhibition, charcoal separation [32P]cAMP phosphodiesterase assay; assay type: biochemical
T1 construct: PDE4 IC50; other: human recombinant PDE4
Description: The compounds of structural formula (II) were tested for an ability to inhibit PDE4. The ability of a compound to inhibit PDE4 activity is related to the IC50 value for the compound, i.e., the concentration of inhibitor required for 50% inhibition of enzyme activity. The IC50 value for compounds of structural formula (II) were determined using recombinant human PDE4.
Recombinant production of human PDE1B, PDE2, PDE4A, PDE4B, PDE4C, PDE4D, PDE5, and PDE7 was carried out similarly to that described in Example 7 of U.S. Pat. No. 5,702,936, incorporated herein by reference, except that the yeast transformation vector employed, which is derived from the basic ADH2 plasmid described in Price et al., Methods in Enzymology, 185, pp. 308-318 (1990), incorporated yeast ADH2 promoter and terminator sequences and the Saccharomyces cerevisiae host was the protease-deficient strain BJ2-54 deposited on Aug. 31, 1998 with the American Type Culture Collection, Manassas, Va., under accession number ATCC 74465. Transformed host cells were grown in 2×SC-leu medium, pH 6.2, with trace metals, and vitamins. After 24 hours, YEP medium-containing glycerol was added to a final concentration of 2×YET/3% glycerol. Approximately 24 hr later, cells were harvested, washed, and stored at −70° C.
Phosphodiesterase activity of the preparations was determined as follows. PDE assays utilizing a charcoal separation technique were performed essentially as described in Loughney et al. (1996). In this assay, PDE activity converts [32P]cAMP or [32P]cGMP to the corresponding [32P]5′-AMP or [32P]5′-GMP in proportion to the amount of PDE activity present. The [32P]5′-AMP or [32P]5′-GMP then was quantitatively converted to free [32P]phosphate and unlabeled adenosine or guanosine by the action of snake venom 5′-nucleotidase. […] The assay was performed at 30° C. in a 100 μL reaction mixture containing (final concentrations) 40 mM Tris HCl (pH 8.0), 1 μM ZnSO4, 5 mM MgCl2, and 0.1 mg/mL bovine serum albumin (BSA). Alternatively, in assays assessing PDE1-specific activity, incubation mixtures further incorporated the use of 0.1 mM CaCl2 and 10 μg/mL calmodulin. PDE enzyme was present in quantities that yield <30% total hydrolysis of substrate (linear assay conditions). The assay was initiated by addition of substrate (1 mM [32P]cAMP or cGMP), and the mixture was incubated for 12 minutes. Seventy-five (75) μg of Crotalus atrox venom then was added, and the incubation was continued for 3 minutes (15 minutes total). The reaction was stopped by addition of 200 μL of activated charcoal (25 mg/mL suspension in 0.1 M […], pH 4). After centrifugation (750×g for 3 minutes) to sediment the charcoal, a sample of the supernatant was taken for radioactivity determination in a scintillation counter and the PDE activity was calculated.
Inhibitor analyses were performed similarly to the method described in Loughney et al., J. Biol. Chem., 271, pp. 796-806 (1996), except both cGMP and cAMP were used, and substrate concentrations were kept below 32 nM, which is far below the Km of the tested PDEs.

[2] = system: TNFα secretion in human peripheral blood lymphocytes; experiment: Lipopolysaccharide-stimulated TNFα release from human peripheral blood lymphocytes; assay type: cell-based; settings: for EC50: Lymphocyte, LPS-stimulated TNFα release from human PBL
Description: The compounds of structural formula (II) also were tested for an ability to reduce TNFα secretion in human peripheral blood lymphocytes. The ability to reduce TNFα secretion is related to the EC50 values i.e., the effective concentration pf the compound capable of inhibiting 50% of the total TNFα).
To assess the ability of a compound to reduce TNFα secretion in human peripheral blood lymphocytes (PBL), the following tests were performed.
Heparinized blood (approximately 30 mL) drawn from human volunteers was mixed 1:1 with Dulbecco's modified phosphate-buffered saline. This mixture was mixed 1:1 with HISTOPAQUE® and centrifuged at 1,500 rpm at room temperature without braking in the swinging bucket of a Beckman model TJ6 centrifuge. Erythrocytes were centrifuged to the bottom of the tubes, and serum remained at the surface of the tubes. A layer containing lymphocytes sedimented between the serum and HISTOPAQUE® layers, and was removed by aspiration to a fresh tube. The cells were quantified and adjusted to […] and a 100 μL aliquot is placed into the wells of a 96 well plate. Test compounds and RPMI media (Gibco/BRL Life Sciences) are added to each of the wells 15 minutes prior to addition of bacterial LPS ([…]). The mixture was allowed to incubate for 20 hours at 37° C. in a humidified chamber. The cells then were separated by centrifuging at 800 rpm for 5 minutes at room temperature. An aliquot of 180 μL of supernatant was transferred to a new plate for determination of TNFα concentration. TNFα protein in the cell supernatant fluids was measured using a commercially available enzyme-linked immunosorbent assay (ELISA) (CYTOSCREEN® Immunoassay Kit from Biosource International).
The cell-based assay provided the following results for various pyrrolidine compounds of the present invention. The EC50 values (i.e., effective concentration of the compound capable of inhibiting 50% of the total TNFα) illustrate the ability of the present compounds to inhibit LPS-stimulated TNFα release from human PBL.

female Balb/c mice = experiment: Combined mouse endotoxin-stimulated TNFα release and locomotor activity assay (mobility); assay type: in vivo
Description: The purpose of this study was to determine the efficacy of PDE4 inhibitors in vivo in an LPS mouse model together with a determination with respect to central nervous system (CNS) side-effects manifested by a decrease in spontaneous mobility.
The test animals were female Balb/c mice, having an average weight of about 20 g. […] Individual dose volumes (about 150 μL) were adjusted based on the body weights measured. One hour later, 5 mg/kQ LPS in a final volume of 200 μL was injected via the tail vein to each animal. Ninety minutes following the LPS treatment, the animals were bled and serum samples were collected before being stored at −70° C. until assayed.
Movement of the X-Y plane, or rearing up on the hind legs, was quantified by counting the number of “light-beam” crosses per unit of time. A decrease in the number of activity events is directly proportional to the mobility or immobilization of the animal. The quantitative scoring correlated well with the subjective measurements described above.
The following table summarizes the mouse locomotor activity assay as mobility (% activity) obtained by the above-described method: […]

[3] = in vivo; cited from earlier work
recombinant human PDE4 [4] = settings: reported value; read-out: IC50 with respect to inhibiting recombinant human PDE4; cited from earlier work

SMILES	IC50 (recombinant human PDE4 [1]) [nM]	EC50 [2] [nM]	Mobility (% activity at 50 mg/kg dose) (female Balb/c mice) [%]	Emetic potential relative to the (+)-enantiomer [3]	LPS-induced TNFα secretion from human lymphocytes ([2]; preliminary experiments)	IC50 (recombinant human PDE4 [4]) [nM]
CNC(C)[C@]1(C)CN(C(=O)OC)C[C@H]1c1ccc(OC)c(OC2CCCC2)c1 (mixture of isomers) [Example 19, Methyl (3S,4S)-4-(3-cyclopentyloxy-4-methoxyphenyl)-3-methyl-3-[(methylamino)ethylpyrrolidine Carboxylate]	51.7	59	145			
COc1ccc([C@@H]2CNC(=O)C2)cc1OC1CCCC1 (single isomer, unassigned) [(−)-enantiomer of rolipram]				about ten-fold more emetic than the (+)-enantiomer		
COc1ccc([C@@H]2CN(Cc3ccccc3)C[C@@]2(C)C(C)N)cc1OC1CCCC1 (single isomer, unassigned) [Example 9]	57.5	609	55			
COc1ccc(C2CN(Cc3ccccc3)C[C@@]2(C)C(C)N)cc1OC1CCCC1 (stereo partly shown) [Example 20]	22	198	93			
COc1ccc(C2CNC(=O)C2)cc1OC1CCCC1 (stereo not shown) [Rolipram, reference compound]					inhibit LPS-induced TNFα secretion from human lymphocytes in a dose-dependent fashion	~200
COC(=O)N1CC(c2ccc(OC)c(OC3CCCC3)c2)C(C)(C(C)=O)C1 (stereo not shown) [structural formula (I)]						~2
